The CheMixHub ionic liquid set

Assay: xn = mol fraction of the nth substance listed

CCOS(=O)(=O)[O-].CC[n+]1ccn(C)c1 + CC[n+]1ccn(C)c1.N#C[S-]
Details | viscosity [mPa·s]
353.15 K, 100 kPa, x2 = 0 | 15

CCOS(=O)(=O)[O-].CC[n+]1ccn(C)c1 + CC[n+]1ccn(C)c1.O=S(=O)([N-]S(=O)(=O)C(F)(F)F)C(F)(F)F
Details | viscosity [mPa·s]
298.15 K, 100 kPa, x2 = 0 | 100.6

[I-].[Li+] + CC[n+]1ccn(C)c1.O=S(=O)([N-]S(=O)(=O)C(F)(F)F)C(F)(F)F
electrical conductivity [S/m], 101 kPa
Details | x2 = 0.8099 | x2 = 0.8475 | x2 = 0.8826 | x2 = 0.9207 | x2 = 0.9587
288.15 K | – | 0.225 | 0.294 | 0.385 | 0.497
298.15 K | 0.286 | 0.376 | 0.473 | 0.602 | 0.744
333.15 K | 1.06 | 1.25 | 1.43 | 1.66 | 1.94

[I-].[Li+] + CC[n+]1ccn(C)c1.O=S(=O)([O-])C(F)(F)F
electrical conductivity [S/m], 101 kPa
Details | 288.15 K | 298.15 K | 333.15 K
x1 = 0.007746 | 0.575 | 0.843 | 2.22
x1 = 0.01537 | 0.548 | 0.817 | 2.15
x2 = 0.9746 | 0.556 | 0.827 | 2.17

NCCOCCO + CN1CCCC1=O + CCCC[n+]1ccn(C)c1.O=S(=O)([N-]S(=O)(=O)C(F)(F)F)C(F)(F)F
viscosity [mPa·s], 101 kPa
Details | 293.15 K | 298.15 K | 303.15 K | 308.15 K | 313.15 K | 318.15 K | 323.15 K | 328.15 K | 333.15 K
x1 = 0.2949, x2 = 0.6792 | 5.359 | 4.682 | 4.146 | 3.69 | 3.316 | 3.017 | 2.747 | 2.523 | 2.335
x1 = 0.3615, x2 = 0.5637 | 8.078 | 6.927 | 6.008 | 5.26 | 4.651 | 4.139 | 3.714 | 3.359 | 3.062
x1 = 0.4113, x2 = 0.453 | 12.21 | 10.27 | 8.74 | 7.52 | 6.54 | 5.736 | 5.069 | 4.517 | 4.053

CC(=O)[O-].Cn1cc[nH+]c1 + COS(=O)(=O)[O-].Cn1cc[n+](C)c1
298.15 K, 100 kPa
Details | viscosity [mPa·s]
x1 = 0.1 | 90.2
x1 = 0.19 | 77.2
x1 = 0.31 | 56.3
x1 = 0.4 | 40.7
x1 = 0.5 | 35.3
x1 = 0.59 | 27.7

CCOS(=O)(=O)[O-].CC[n+]1ccn(C)c1 + CS(C)=O
101 kPa, x1 = 0.3333
Details | viscosity [mPa·s]
288.15 K | 3.92
293.15 K | 3.53
313.15 K | 2.26
348.15 K | 1.27

CC[NH+](CC)CC.O=P([O-])(O)O + CS(C)=O
viscosity [mPa·s], 101 kPa
Details | 298.15 K | 303.15 K | 308.15 K
x2 = 0 | 64.3 | 57.1 | 49.5
x2 = 0.0242 | 61.3 | 54.6 | 47.55
x2 = 0.0507 | 58.2 | 51.7 | 45.51
x2 = 0.1295 | 49.7 | 44.43 | 39.41
x2 = 0.1963 | 43.47 | 38.82 | 34.74
x2 = 0.2596 | 37.82 | 34.13 | 30.67
x2 = 0.3272 | 32.61 | 29.61 | 26.81
x2 = 0.3878 | 28.47 | 26.13 | 23.64
x2 = 0.4494 | 24.64 | 22.94 | 20.75
x2 = 0.5141 | 21.1 | 19.68 | 17.92
x2 = 0.5888 | 17.29 | 16.43 | 14.93
x2 = 0.6387 | 15 | 14.42 | 13.14
x2 = 0.7055 | 12.26 | 11.95 | 10.82
x2 = 0.7616 | 10.18 | 9.98 | 9.01
x2 = 0.8342 | 7.58 | 7.36 | 6.75
x2 = 0.8828 | 5.7 | 5.6 | 5.23
x2 = 0.9272 | 4.37 | 4.24 | 3.84
x2 = 0.9543 | 3.31 | 3.2 | 2.98
x2 = 0.9772 | 2.7 | 2.56 | 2.33

COCCCC[n+]1ccn(C)c1.C[C@@H](O)[C@H](N)C(=O)[O-] + CS(C)=O
viscosity [mPa·s], 100 kPa
Details | x1 = 0.0999 | x1 = 0.2013 | x1 = 0.3006 | x1 = 0.3966 | x1 = 0.5 | x1 = 0.6011 | x1 = 0.7007 | x1 = 0.8001 | x1 = 0.8946 | x1 = 1
288.15 K | 14.24 | 22.21 | 49.3 | 102.2 | 186.6 | 281 | 390 | 560 | 778 | 1030
293.15 K | 12.05 | 18.12 | 37.45 | 74.9 | 132.1 | 192 | 264 | 371 | 503 | 647
298.15 K | 9.53 | 15.09 | 30.16 | 56.54 | 94.4 | 135.2 | 181.5 | 254 | 340 | 424
303.15 K | 7.91 | 12.7 | 24.02 | 43.12 | 69.4 | 97.9 | 131.7 | 179.9 | 234 | 290
308.15 K | 6.67 | 10.74 | 19.82 | 33.94 | 52.97 | 74.4 | 98.5 | 133 | 168.7 | 205
313.15 K | 5.86 | 9.49 | 16.58 | 27.18 | 39.95 | 53.5 | 69.5 | 90.7 | 108.9 | 132.9
318.15 K | 5.2 | 8.31 | 13.95 | 21.6 | 31.33 | 41.63 | 53.64 | 69.5 | 80.3 | 98.5

Cn1cc[n+](CCCN)c1.F[B-](F)(F)F + CS(C)=O
101 kPa, frequency 3 MHz
Details | electrical conductivity [S/m]
293.15 K, x1 = 0.2997 | 0.537
293.15 K, x1 = 0.3997 | 0.334
293.15 K, x1 = 0.5999 | 0.151
293.15 K, x1 = 0.8998 | 0.032
298.15 K, x1 = 0.1003 | 1.08
298.15 K, x1 = 1 | 0.026
303.15 K, x1 = 0.2997 | 0.701
303.15 K, x1 = 0.7001 | 0.151
303.15 K, x1 = 0.8109 | 0.096
303.15 K, x1 = 0.8998 | 0.062
308.15 K, x1 = 0.8109 | 0.12
308.15 K, x1 = 1 | 0.055
313.15 K, x1 = 0.1003 | 1.544
313.15 K, x1 = 0.5999 | 0.323
313.15 K, x1 = 0.8109 | 0.15
318.15 K, x1 = 0.3997 | 0.71
318.15 K, x1 = 0.7001 | 0.264
323.15 K, x1 = 0.4998 | 0.576
323.15 K, x1 = 1 | 0.124
328.15 K, x1 = 0.1003 | 2.107
328.15 K, x1 = 0.2 | 1.611
328.15 K, x1 = 0.3997 | 0.922
333.15 K, x1 = 0.2997 | 1.4
338.15 K, x1 = 0.3997 | 1.17
338.15 K, x1 = 0.8109 | 0.381
338.15 K, x1 = 1 | 0.253
343.15 K, x1 = 0.1003 | 2.77
343.15 K, x1 = 0.5999 | 0.772
353.15 K, x1 = 0.3997 | 1.614

101 kPa
Details | viscosity [mPa·s]
293.15 K, x1 = 0.2997 | 42.06
293.15 K, x1 = 0.3997 | 58.56
293.15 K, x1 = 0.5999 | 96.13
293.15 K, x1 = 0.8998 | 161.7
298.15 K, x1 = 0.1003 | 10.17
298.15 K, x1 = 1 | 149.6
303.15 K, x1 = 0.2997 | 25.7
303.15 K, x1 = 0.7001 | 74.98
303.15 K, x1 = 0.8109 | 91.64
303.15 K, x1 = 0.8998 | 105.4
308.15 K, x1 = 0.8109 | 75.58
308.15 K, x1 = 1 | 100.2
313.15 K, x1 = 0.1003 | 5.27
313.15 K, x1 = 0.5999 | 40.83
313.15 K, x1 = 0.8109 | 62.45
318.15 K, x1 = 0.3997 | 19.73
318.15 K, x1 = 0.7001 | 42.06
323.15 K, x1 = 0.4998 | 22.1
323.15 K, x1 = 1 | 58.45
328.15 K, x1 = 0.1003 | 3.179
328.15 K, x1 = 0.2 | 6.358
328.15 K, x1 = 0.3997 | 14.21
333.15 K, x1 = 0.2997 | 8.621
333.15 K, x1 = 0.3997 | 12.05
338.15 K, x1 = 0.3997 | 10.36
338.15 K, x1 = 0.8109 | 26.89
338.15 K, x1 = 1 | 36.58
343.15 K, x1 = 0.1003 | 2.166
343.15 K, x1 = 0.5999 | 15.34
353.15 K, x1 = 0.3997 | 7.134

CC[n+]1ccn(C)c1.[Br-] + C[NH2+]CCC=C1c2ccccc2CCc2ccccc21.[Cl-] + O
viscosity [mPa·s], 100 kPa
Details | 288.15 K | 298.15 K | 308.15 K | 318.15 K
x2 = 0, x1 = 0.0001802 | 1.141 | 0.911 | 0.744 | 0.627
x2 = 0, x1 = 0.0007203 | 1.147 | 0.916 | 0.748 | 0.632
x2 = 0, x1 = 0.00126 | 1.152 | 0.923 | 0.754 | 0.639

CCCC[N+](CCCC)(CCCC)CCCC.O=S(=O)([O-])O + Cc1ncc(C[n+]2csc(CCO)c2C)c(N)n1.Cl.[Cl-] + O
viscosity [mPa·s], 101 kPa
Details | 298.15 K | 308.15 K | 318.15 K
x2 = 0.0003644, x1 = 0.0003601 | 0.9075 | 0.7352 | 0.6088
x2 = 0.0003645, x1 = 9.006e-05 | 0.9037 | 0.7314 | 0.605
x2 = 0.000365, x1 = 0.0001801 | 0.905 | 0.7327 | 0.6062
x2 = 0.0003656, x1 = 0.0002701 | 0.9062 | 0.7339 | 0.6075
x2 = 0.0006576, x1 = 0.0001801 | 0.9165 | 0.7418 | 0.6142
x2 = 0.0006584, x1 = 9.003e-05 | 0.9153 | 0.7406 | 0.6129
x2 = 0.0006587, x1 = 0.00027 | 0.918 | 0.7431 | 0.615
x2 = 0.0006597, x1 = 0.00036 | 0.919 | 0.7443 | 0.6167
x2 = 0.0009539, x1 = 9.001e-05 | 0.9257 | 0.7497 | 0.6208
x2 = 0.0009554, x1 = 0.00018 | 0.93 | 0.751 | 0.62
x2 = 0.0009567, x1 = 0.0003599 | 0.9295 | 0.7535 | 0.6246
x2 = 0.0009569, x1 = 0.00027 | 0.9283 | 0.7522 | 0.6234
x2 = 0.001253, x1 = 8.998e-05 | 0.9373 | 0.7589 | 0.6288
x2 = 0.001255, x1 = 0.0001799 | 0.9386 | 0.7602 | 0.63
x2 = 0.001255, x1 = 0.0002699 | 0.9398 | 0.7614 | 0.6313
x2 = 0.001257, x1 = 0.0003598 | 0.9411 | 0.7626 | 0.6326
x2 = 0.001555, x1 = 8.995e-05 | 0.9478 | 0.7692 | 0.6355
x2 = 0.001556, x1 = 0.0001799 | 0.9491 | 0.7705 | 0.6368
x2 = 0.001558, x1 = 0.0002698 | 0.95 | 0.7717 | 0.64
x2 = 0.001561, x1 = 0.0003597 | 0.9516 | 0.773 | 0.6393
x2 = 0.001859, x1 = 8.992e-05 | 0.9569 | 0.7784 | 0.6425
x2 = 0.00186, x1 = 0.0001798 | 0.9582 | 0.7797 | 0.6438
x2 = 0.001863, x1 = 0.0002697 | 0.9594 | 0.7809 | 0.6451
x2 = 0.001866, x1 = 0.0003596 | 0.9607 | 0.7822 | 0.6464

C[NH+](C)C.O=S(=O)([N-]S(=O)(=O)C(F)(F)F)C(F)(F)F + N#CCCCC#N
101 kPa, x1 = 0.2167
Details | viscosity [mPa·s]
288 K | 15.76
298 K | 11.43
318 K | 6.747
353 K | 3.452
